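Results reflect a 48-hour exposure of cells in 96-well plates to compound at five concentrations. Abbreviation: GI50, concentration required for 50% inhibition of growth.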 Active and inactive are the calls of the source. Rule as the data show it: active = GI50 up to about 1.1 µM and inactive = higher.
Tests used:
Assay in all cases: inhibition of tumour cell growth, NCI panel, 48 h
MOLT-4 = test system: MOLT-4
CAKI-1 = test system: CAKI-1
OVCAR-4 = test system: OVCAR-4
NCI/ADR-RES = test system: NCI/ADR-RES
HL-60 = test system: HL-60
SNB-75 = test system: SNB-75
COLO 205 = test system: COLO 205
HCC 2998 = test system: HCC 2998
NCI-H522 = test system: NCI-H522
SK-MEL-2 = test system: SK-MEL-2
SF-539 = test system: SF-539
LOX IMVI = test system: LOX IMVI
UACC-62 = test system: UACC-62
786-0 = test system: 786-0
ACHN = test system: ACHN
NCI-H460 = test system: NCI-H460
HOP-92 = test system: HOP-92
HOP-62 = test system: HOP-62
KM12 = test system: KM12
SF-295 = test system: SF-295

SMILES | GI50 (MOLT-4) | GI50 (CAKI-1) | GI50 (OVCAR-4) | GI50 (NCI/ADR-RES) | GI50 (HL-60) | GI50 (SNB-75) | GI50 (COLO 205) | GI50 (HCC 2998) | GI50 (NCI-H522) | GI50 (SK-MEL-2) | GI50 (SF-539) | GI50 (LOX IMVI) | GI50 (UACC-62) | GI50 (786-0) | GI50 (ACHN) | GI50 (NCI-H460) | GI50 (HOP-92) | GI50 (HOP-62) | GI50 (KM12) | GI50 (SF-295)
CCOC(=O)c1sc2nc1CSc1sc(=S)sc1SCc1nc(sc1C(=O)OCC)-c1nc(c(C(=O)OCC)s1)CSc1sc(=S)sc1SCc1nc-2sc1C(=O)OCC | > 10 µM (inactive) | > 10 µM (inactive) | > 10 µM (inactive) | > 10 µM (inactive) | > 10 µM (inactive) | > 10 µM (inactive) | > 10 µM (inactive) | > 10 µM (inactive) | > 10 µM (inactive) | > 10 µM (inactive) | > 10 µM (inactive) | > 10 µM (inactive) | > 10 µM (inactive) | > 10 µM (inactive) | > 10 µM (inactive) | > 10 µM (inactive) | > 10 µM (inactive) | > 10 µM (inactive) | > 10 µM (inactive) | > 10 µM (inactive)
COc1cc2c(c(O)c1OC)CC1CCC(=O)N1C2c1cccc2ccccc12 (stereo not given) | 26.1 µM (inactive) | 19.5 µM (inactive) | > 10 µM (inactive) | 19.4 µM (inactive) | 0.813 µM (active) | 39 µM (inactive) | 15.6 µM (inactive) | 16 µM (inactive) | 20.3 µM (inactive) | 17.5 µM (inactive) | 16.1 µM (inactive) | 23 µM (inactive) | 14.2 µM (inactive) | 30.3 µM (inactive) | 29.3 µM (inactive) | 22.9 µM (inactive) | 14.1 µM (inactive) | 20.8 µM (inactive) | 23.9 µM (inactive) | 18.6 µM (inactive)
Nc1c(-c2ccc(Cl)c(Cl)c2)c2ccc([N+](=O)[O-])cc2c(=O)n1-c1nc2ccccc2s1 | 1.12 µM (active) | 0.719 µM (active) | 1.19 µM (inactive) | 0.577 µM (active) | 0.318 µM (active) | 1.07 µM (active) | 1.5 µM (inactive) | 18.6 µM (inactive) | 0.193 µM (active) | 0.369 µM (active) | 2.65 µM (inactive) | 0.538 µM (active) | 0.419 µM (active) | 0.767 µM (active) | 0.448 µM (active) | 0.386 µM (active) | 0.296 µM (active) | 1.06 µM (active) | 0.64 µM (active) | 0.551 µM (active)
